We go through 9 molecules from ChEMBL document CHEMBL3351448, “Discovery of (7-aryl-1,5-naphthyridin-2-yl)ureas as dual inhibitors of ERK2 and Aurora B kinases with antiproliferative activity against cancer cells” (Bioorg Med Chem Lett, 2014).

In data set [1] the target is High affinity nerve growth factor receptor (Homo sapiens, UniProt P04629). Nature of the data set: Inhibition of TrkA (unknown origin).
Data set [2] can be described thus: Antiproliferative activity against human PC3 cells. The settings on record: PC-3. The format is functional, cell-based.
A short description of data set [3]: Antiproliferative activity against human HCT116 cells. The format is functional, cell-based. The conditions noted are these: HCT-116.
Data set [4] addresses Serine/threonine-protein kinase pim-1 (Homo sapiens, UniProt P11309). In words: Inhibition of PIM1 (unknown origin).
The target of data set [5] is Vascular endothelial growth factor receptor 2 (Homo sapiens, UniProt P35968). In words: Inhibition of KDR (unknown origin).
Chain of Vascular endothelial growth factor receptor 2 (P35968 whole entry): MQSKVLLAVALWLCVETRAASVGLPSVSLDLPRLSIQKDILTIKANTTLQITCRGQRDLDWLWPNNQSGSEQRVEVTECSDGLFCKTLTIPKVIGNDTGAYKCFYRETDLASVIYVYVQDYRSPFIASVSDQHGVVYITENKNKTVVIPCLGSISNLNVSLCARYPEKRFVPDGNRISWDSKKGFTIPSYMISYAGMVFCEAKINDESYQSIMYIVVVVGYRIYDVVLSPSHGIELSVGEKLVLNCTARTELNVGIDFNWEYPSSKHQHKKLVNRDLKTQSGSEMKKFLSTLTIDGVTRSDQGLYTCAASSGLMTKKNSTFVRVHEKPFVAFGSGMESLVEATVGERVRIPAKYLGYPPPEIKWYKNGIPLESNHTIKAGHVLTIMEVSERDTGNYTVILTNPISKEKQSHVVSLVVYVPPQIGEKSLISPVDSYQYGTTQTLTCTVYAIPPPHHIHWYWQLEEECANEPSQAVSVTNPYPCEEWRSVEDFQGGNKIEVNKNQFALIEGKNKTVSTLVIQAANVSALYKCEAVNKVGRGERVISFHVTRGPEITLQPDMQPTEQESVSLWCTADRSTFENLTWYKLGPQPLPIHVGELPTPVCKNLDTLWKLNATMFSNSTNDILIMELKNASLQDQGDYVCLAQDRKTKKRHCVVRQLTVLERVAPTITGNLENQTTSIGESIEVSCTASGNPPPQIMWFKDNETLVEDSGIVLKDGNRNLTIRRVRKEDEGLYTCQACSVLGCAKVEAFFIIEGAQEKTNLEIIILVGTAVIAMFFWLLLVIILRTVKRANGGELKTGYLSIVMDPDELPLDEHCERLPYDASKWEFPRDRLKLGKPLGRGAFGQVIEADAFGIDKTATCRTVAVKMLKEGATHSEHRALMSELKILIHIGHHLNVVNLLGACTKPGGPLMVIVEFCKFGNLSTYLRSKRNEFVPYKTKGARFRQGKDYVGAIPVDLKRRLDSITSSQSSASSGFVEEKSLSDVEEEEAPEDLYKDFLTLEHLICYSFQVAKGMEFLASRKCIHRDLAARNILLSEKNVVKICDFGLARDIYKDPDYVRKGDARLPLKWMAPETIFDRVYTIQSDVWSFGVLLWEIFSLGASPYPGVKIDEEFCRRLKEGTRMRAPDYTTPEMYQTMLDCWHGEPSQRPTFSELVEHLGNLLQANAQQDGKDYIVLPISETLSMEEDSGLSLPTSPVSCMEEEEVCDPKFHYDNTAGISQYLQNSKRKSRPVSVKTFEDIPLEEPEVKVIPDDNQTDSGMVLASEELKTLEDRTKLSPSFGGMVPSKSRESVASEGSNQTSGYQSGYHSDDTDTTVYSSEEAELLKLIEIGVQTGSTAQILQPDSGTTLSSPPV
Data set [6] has as its target Tyrosine-protein kinase ABL1 (Homo sapiens, UniProt P00519). In words: Inhibition of c-Abl (unknown origin).
The nature of data set [7]: Antiproliferative activity against human U87MG cells. The format is functional, cell-based, U-87MG ATCC. The settings on record: U-87 MG.
The test system of data set [8] is A549. In words: Antiproliferative activity against human A549 cells. The format is functional, cell-based.
Data set [9] deals with MDA-MB-468. Nature of the data set: Antiproliferative activity against human MDA-MB-468 cells. The format is functional, cell-based.
Data set [10] addresses Homeodomain-interacting protein kinase 1 (Homo sapiens, UniProt Q86Z02). Nature of the data set: Inhibition of HIPK1 (unknown origin).
In data set [11] the target is Tyrosine-protein kinase Yes (Homo sapiens, UniProt P07947). In words: Inhibition of YES (unknown origin).
Chain of Tyrosine-protein kinase Yes (P07947 whole entry): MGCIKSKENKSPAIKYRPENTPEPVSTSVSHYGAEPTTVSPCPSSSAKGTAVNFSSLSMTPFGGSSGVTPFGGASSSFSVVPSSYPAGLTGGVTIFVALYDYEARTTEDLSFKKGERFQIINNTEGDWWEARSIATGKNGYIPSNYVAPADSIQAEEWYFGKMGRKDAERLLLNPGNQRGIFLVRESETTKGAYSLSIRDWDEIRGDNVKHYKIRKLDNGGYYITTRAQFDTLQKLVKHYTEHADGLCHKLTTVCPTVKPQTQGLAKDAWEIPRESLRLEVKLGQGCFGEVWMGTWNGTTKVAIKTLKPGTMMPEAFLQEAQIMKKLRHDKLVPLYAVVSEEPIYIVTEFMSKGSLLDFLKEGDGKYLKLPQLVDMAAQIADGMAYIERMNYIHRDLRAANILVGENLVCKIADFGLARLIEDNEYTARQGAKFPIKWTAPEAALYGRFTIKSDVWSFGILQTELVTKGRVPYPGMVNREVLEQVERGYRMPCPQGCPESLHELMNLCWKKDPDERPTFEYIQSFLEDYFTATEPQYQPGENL
Data set [12] can be described thus: Chromatographic hydrophobicity index, CHI of the compound by RP-HPLC method. The format is physicochemical.
Data set [13] is described as follows: Solubility in PBS buffer at pH 7.4 in presence of 1% BSA. The settings on record: PBS buffer with 1% BSA. The class given is physicochemical.
The nature of data set [14]: Stability in mouse liver microsomes assessed as parent compound remaining after 1 hr. The class given is ADME. The settings on record: read-out: Stability.
A short description of data set [15]: Lipophilicity, logD of the compound at pH 7.4 by RP-HPLC method based chromatographic hydrophobicity index determination. The class given is physicochemical. The conditions noted are these: buffer.
Data set [16] in a line: Permeability from basolateral to apical side in human Caco2 cells in presence of 1% BSA. The conditions noted are these: Caco-2, read-out: permeability. The class given is ADME, cell-based.
Data set [17] addresses Voltage-gated inwardly rectifying potassium channel KCNH2 (Homo sapiens, UniProt Q12809). In words: Binding affinity to human ERG.
Data set [18] can be described thus: Permeability from apical to basolateral side in human Caco2 cells in presence of 1% BSA. The format is ADME, cell-based. The settings on record: Caco-2, read-out: permeability. In general terms: Caco-2 cells form a polarised layer with tight junctions and transporters.
Data set [19] can be described thus: Efflux ratio in human Caco2 cells in presence of 1% BSA. The class given is ADME, cell-based. The conditions noted are these: Caco-2.
Data set [20] addresses Cytochrome P450 3A4 (Homo sapiens, UniProt P08684). Nature of the data set: Inhibition of CYP3A4 (unknown origin). The format is ADME.
The nature of data set [21]: Stability in mouse plasma assessed as parent compound remaining after 6 hrs. The conditions noted are these: read-out: Stability. The class given is ADME, cell-free.
In data set [22] the target is Mitogen-activated protein kinase 1 (Homo sapiens, UniProt P28482). Nature of the data set: Inhibition of ERK2 (unknown origin).

Molecules are shown by their SMILES. pIC50: −log10 of the molar value.

Chain of Serine/threonine-protein kinase pim-1 (P11309 whole entry): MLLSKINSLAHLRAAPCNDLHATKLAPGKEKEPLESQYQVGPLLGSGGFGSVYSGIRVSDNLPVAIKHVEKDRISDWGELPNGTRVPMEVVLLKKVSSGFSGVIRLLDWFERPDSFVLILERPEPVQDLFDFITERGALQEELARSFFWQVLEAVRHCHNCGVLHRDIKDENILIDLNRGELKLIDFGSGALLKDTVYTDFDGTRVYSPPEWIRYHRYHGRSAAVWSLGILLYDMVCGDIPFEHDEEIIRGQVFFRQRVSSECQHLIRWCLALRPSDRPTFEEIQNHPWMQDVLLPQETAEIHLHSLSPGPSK
Chain of Tyrosine-protein kinase ABL1 (P00519 whole entry): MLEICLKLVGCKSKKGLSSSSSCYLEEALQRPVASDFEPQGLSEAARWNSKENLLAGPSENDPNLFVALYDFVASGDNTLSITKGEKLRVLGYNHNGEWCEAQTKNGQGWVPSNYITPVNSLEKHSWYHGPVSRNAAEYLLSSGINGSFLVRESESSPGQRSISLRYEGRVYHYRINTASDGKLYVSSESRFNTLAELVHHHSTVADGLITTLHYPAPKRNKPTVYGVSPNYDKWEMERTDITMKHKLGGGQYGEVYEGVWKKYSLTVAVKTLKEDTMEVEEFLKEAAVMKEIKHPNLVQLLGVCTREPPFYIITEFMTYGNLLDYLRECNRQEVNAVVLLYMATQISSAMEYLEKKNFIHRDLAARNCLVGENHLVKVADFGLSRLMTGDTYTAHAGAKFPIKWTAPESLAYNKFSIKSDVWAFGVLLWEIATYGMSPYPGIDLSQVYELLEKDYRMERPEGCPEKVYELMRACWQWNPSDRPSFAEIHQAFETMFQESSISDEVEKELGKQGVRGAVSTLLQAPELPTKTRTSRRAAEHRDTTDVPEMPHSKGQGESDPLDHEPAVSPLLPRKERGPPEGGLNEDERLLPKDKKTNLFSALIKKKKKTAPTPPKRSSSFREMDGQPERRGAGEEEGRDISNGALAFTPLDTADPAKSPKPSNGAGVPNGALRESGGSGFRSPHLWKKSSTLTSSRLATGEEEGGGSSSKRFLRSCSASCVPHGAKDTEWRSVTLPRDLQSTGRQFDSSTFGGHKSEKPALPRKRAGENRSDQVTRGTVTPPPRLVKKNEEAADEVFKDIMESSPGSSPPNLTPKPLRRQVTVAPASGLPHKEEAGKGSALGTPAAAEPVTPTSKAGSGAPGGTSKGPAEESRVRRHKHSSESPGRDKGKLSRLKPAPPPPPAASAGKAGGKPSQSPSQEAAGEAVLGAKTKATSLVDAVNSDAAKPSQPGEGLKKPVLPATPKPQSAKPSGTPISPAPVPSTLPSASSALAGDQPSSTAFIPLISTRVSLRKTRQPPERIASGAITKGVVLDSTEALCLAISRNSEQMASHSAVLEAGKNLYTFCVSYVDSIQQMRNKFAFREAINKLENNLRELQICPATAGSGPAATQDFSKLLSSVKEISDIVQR
Chain of Homeodomain-interacting protein kinase 1 (Q86Z02 whole entry): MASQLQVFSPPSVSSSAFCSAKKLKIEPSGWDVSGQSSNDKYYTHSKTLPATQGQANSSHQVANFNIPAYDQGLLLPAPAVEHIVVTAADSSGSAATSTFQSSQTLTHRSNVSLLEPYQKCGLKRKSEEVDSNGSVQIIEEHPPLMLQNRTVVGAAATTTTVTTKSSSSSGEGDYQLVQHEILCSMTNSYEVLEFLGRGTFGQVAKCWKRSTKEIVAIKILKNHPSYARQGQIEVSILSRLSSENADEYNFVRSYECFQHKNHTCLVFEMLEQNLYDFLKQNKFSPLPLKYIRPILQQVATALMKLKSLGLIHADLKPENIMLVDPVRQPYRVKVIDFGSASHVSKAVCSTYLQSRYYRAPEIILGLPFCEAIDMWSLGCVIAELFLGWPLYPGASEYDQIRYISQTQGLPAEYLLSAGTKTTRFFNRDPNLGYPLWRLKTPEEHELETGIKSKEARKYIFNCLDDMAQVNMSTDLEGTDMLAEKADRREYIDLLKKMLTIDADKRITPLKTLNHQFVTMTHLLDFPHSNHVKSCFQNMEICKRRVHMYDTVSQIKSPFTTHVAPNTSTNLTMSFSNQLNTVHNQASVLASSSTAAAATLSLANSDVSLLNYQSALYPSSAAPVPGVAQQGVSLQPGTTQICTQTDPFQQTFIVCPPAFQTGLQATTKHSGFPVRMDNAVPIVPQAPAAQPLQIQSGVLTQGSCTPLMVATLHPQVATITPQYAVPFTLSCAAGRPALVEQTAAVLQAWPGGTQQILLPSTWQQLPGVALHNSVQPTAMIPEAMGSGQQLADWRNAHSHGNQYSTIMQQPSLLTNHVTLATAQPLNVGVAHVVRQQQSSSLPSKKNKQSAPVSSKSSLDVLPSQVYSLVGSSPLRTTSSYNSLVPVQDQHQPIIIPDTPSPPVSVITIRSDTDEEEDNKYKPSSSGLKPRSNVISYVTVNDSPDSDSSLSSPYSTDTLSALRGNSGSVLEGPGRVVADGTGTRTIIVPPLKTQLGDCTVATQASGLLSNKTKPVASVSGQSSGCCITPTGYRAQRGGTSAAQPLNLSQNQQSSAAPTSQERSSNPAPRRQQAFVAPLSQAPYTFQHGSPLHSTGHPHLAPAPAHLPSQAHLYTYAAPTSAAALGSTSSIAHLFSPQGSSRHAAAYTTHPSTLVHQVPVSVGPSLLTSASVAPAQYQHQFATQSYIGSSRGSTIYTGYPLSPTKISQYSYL
Chain of Cytochrome P450 3A4 (P08684 whole entry): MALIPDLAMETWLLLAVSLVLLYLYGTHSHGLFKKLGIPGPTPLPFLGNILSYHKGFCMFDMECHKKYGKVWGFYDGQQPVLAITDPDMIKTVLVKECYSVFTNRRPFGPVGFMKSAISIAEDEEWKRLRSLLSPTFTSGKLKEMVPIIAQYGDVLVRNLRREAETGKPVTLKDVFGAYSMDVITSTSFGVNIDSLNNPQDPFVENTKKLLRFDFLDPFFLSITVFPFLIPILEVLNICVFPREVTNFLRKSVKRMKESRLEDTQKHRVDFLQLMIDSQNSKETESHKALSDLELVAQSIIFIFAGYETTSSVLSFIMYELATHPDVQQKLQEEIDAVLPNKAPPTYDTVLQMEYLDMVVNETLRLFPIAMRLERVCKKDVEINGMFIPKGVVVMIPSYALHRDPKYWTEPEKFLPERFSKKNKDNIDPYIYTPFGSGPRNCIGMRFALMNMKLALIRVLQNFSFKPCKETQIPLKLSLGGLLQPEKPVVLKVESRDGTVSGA

For the molecule `CCNC(=O)Nc1ccc2ncc(-c3ccc(OC)cc3)cc2n1`, the pIC50 – broadly, −log10 of the IC50, conventionally taken in molar units – in data set [1] was below 4.00; in data set [2] it was below 4.30; in [3], 4.80; in [4], 4.43; in data set [5], below 4.00; in data set [6], 4.68. The pIC50 in [7] is below 4.30; in data set [8], below 4.30; in data set [9], below 4.30; in [10], below 4.00; in [11], below 4.00.
Turning to `CCNC(=O)Nc1ccc2ncc(-c3ccc(OC)c(OC)c3)cc2n1`, the pIC50 in data set [1] was below 4.00; in data set [2] it was below 4.30; in data set [3] it was 5.36; in [4], below 4.00; in [5], below 4.00; in data set [6] it was below 4.00. Besides, the pIC50 in data set [7] is below 4.30; in [8], below 4.30; in [9] it was 4.66; in data set [10], 4.87; in [11], 4.38. The CHI in [12] is given as 73.3. Besides, the solubility (as a rule, the concentration that dissolves in the medium under given conditions) in [13] turned out to be 5.7 µM. Also, in [14], the remaining at 1 h worked out at 45.4%. Further, the chromatographic logD (as a rule, lipophilicity estimated from chromatographic retention) in data set [15] is 2.4.
On to `COc1ccc(-c2cnc3ccc(NC(=O)NC(C)(C)C)nc3c2)cc1OC`, for which the pIC50 was below 4.00 in data set [1]; below 4.30 in [2]; below 4.30 in data set [3]; below 4.00 in data set [4]; below 4.00 in data set [5]; below 4.00 in data set [6]. Moreover, the pIC50 in data set [7] was below 4.30; in data set [8], below 4.30; in data set [9], below 4.30; in data set [10], below 4.00; in [11], 4.07. This molecule also registered a CHI in data set [12] of 88.8. Besides, in data set [13], the solubility came to 8.5 µM. Moreover, the remaining at 1 h in data set [14] was 70.4%. The same molecule yielded a chromatographic logD in [15] of 3.2.
With `COc1cc(-c2cnc3ccc(NC(=O)NC(C)(C)C)nc3c2)ccc1O`, the pIC50 in [1] is 4.09; in data set [2], 5.31; in [3], 5.34; in data set [4], below 4.00; in data set [5], below 4.00; in data set [6], below 4.00. Also, the pIC50 is 5.01 in data set [7]; 4.85 in data set [8]; 5.41 in [9]; below 4.00 in [10]; 4.37 in [11]. In data set [12], this molecule showed a CHI of 79.3. Moreover, the chromatographic logD in data set [15] is 2.7.
For `Cn1cc(-c2cnc3ccc(NC(=O)NC(C)(C)C)nc3c2)cn1`, the pIC50 in [1] was 5.35; in [2], 6.17; in data set [3], 6.19; in data set [4], below 4.00; in data set [5] it was below 4.00; in data set [6] it was 5.22. The pIC50 in [7] was below 4.30; in [8] it was 6.00; in data set [9], 5.71; in [10], below 4.00; in [11], 5.10. In data set [12], this molecule yielded a CHI of 76.1. This molecule also came in with a chromatographic logD in data set [15] of 2.5.
In the case of `Cn1cc(-c2cnc3ccc(NC(=O)Nc4ccccc4)nc3c2)cn1`, the pIC50 in data set [1] was below 4.00; in data set [2], 5.86; in data set [3] it was 5.86; in [4] it was below 4.50; in data set [5] it was below 4.00; in data set [6], below 4.00. For the same molecule, the pIC50 in data set [7] is below 4.30; in data set [8] it was 5.51; in data set [9] it was 5.88; in data set [10], below 4.00; in [11], below 4.00. This molecule also yielded a CHI in data set [12] of 73.3. This molecule yielded a chromatographic logD in [15] of 2.4.
In the case of `Cn1cc(-c2cnc3ccc(NC(=O)NCc4ccccc4)nc3c2)cn1`, the pIC50 was below 4.00 in data set [1]; below 4.30 in data set [2]; 6.72 in data set [3]; below 4.50 in data set [4]; below 4.00 in data set [5]; below 4.00 in data set [6]. Moreover, the negative logarithm of the IC50 (pIC50) in [7] was below 4.30; in data set [8], below 4.30; in data set [9] it was below 4.30; in [10], below 4.00; in data set [11], below 4.00. This molecule also registered a CHI in data set [12] of 69.4. In [15], this molecule yielded a chromatographic logD of 2.2.
Regarding `Cn1cc(-c2cnc3ccc(NC(=O)NCCc4ccccc4)nc3c2)cn1`, the pIC50 was 4.90 in data set [1]; 5.92 in [3]; 4.49 in data set [4]; below 4.00 in data set [5]; below 4.00 in data set [6]; below 4.30 in data set [7]. Besides, the pIC50 in data set [9] was 5.74; in data set [10] it was below 4.00; in data set [11], 4.57. The molecule further returned a CHI in [12] of 71.6. In addition, the Papp B→A in data set [16] turned out to be 29 ×10⁻⁶ cm/s. Further, the INH in data set [17] is above 60 µM; in [20] it was above 100 µM. Further, in [13], the solubility stood at 3.9 µM. Further, the remaining at 1 h in [14] stood at 81.1%. The Papp A→B in [18] is 64 ×10⁻⁶ cm/s. The efflux ratio (commonly the permeability from basolateral to apical divided by that in the opposite direction, in the common usage) in data set [19] came to 0.45. For the same molecule, the remaining at 6 h in data set [21] was 96.7%. Also, the chromatographic logD in [15] was 2.3.
`Cn1cc(-c2cnc3c(NC(=O)NC(C)(C)C)ccnc3c2)cn1`: the pIC50 in data set [22] was 4.50.
